Target: T1, HDM2 (Homo sapiens, UniProt Q00987)
T1 construct: Thioredoxin (N); made in house; host or cells: E. coli strain BL21(DE3)Rosetta
Test: FRET assay (HDM2 inhibition; method not described in this part)
Format: binding

T1 sequence (Q00987 17-125): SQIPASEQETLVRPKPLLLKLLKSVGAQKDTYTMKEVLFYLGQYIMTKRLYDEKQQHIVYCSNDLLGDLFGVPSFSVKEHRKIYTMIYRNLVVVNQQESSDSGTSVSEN

Structure (SMILES) | IC50 (Table 1) | IC50 (Table 2) | further results
C[C@@H](Nc1nc(C(=O)O)nc2nc(-c3cc(C4CC4)ccn3)n(Cc3ccc(C(F)(F)F)cc3)c12)C1CCC1 [Example 1.51, 6-{[(1R)-1-cyclobutylethyl]amino}-8-(4-cyclopropylpyridin-2-yl)-7-[4-(trifluoromethyl)benzyl]-7H-purine-2-carboxylic acid] | 8.39 nM | – | –
CC(C)c1ccc(O)c(-c2nc3nc(C(=O)O)nc(N[C@H](C)C4CCC4)c3n2Cc2ccc(C(F)(F)F)cc2)c1 [Example 1.11, (R)-6-((1-cyclobutylethyl)amino)-8-(2-hydroxy-5-isopropylphenyl)-7-(4-(trifluoromethyl)benzyl)-7H-purine-2-carboxylic acid] | 50.3 nM | – | –
C=CCCOc1ccc(C)cc1-c1nc2nc(C(=O)O)nc(N[C@H](C)C3CC3)c2n1Cc1ccc(Cl)cc1 [Example 4.3, (R)-8-(2-(but-3-en-1-yloxy)-5-methylphenyl)-7-(4-chlorobenzyl)-6-((1-cyclopropylethyl)amino)-7H-purine-2-carboxylic acid] | – | – | IC50 (Table 4): 104 nM
C[C@@H](Nc1nc(C(=O)O)nc2nc(-c3ccc(Cl)cc3Cl)n(Cc3ccc(C(F)(F)F)cc3)c12)C1CC1 [Example 2.58, 6-{[(1R)-1-cyclopropylethyl]amino}-8-(2,4-dichlorophenyl)-7-[4-(trifluoromethyl)benzyl]-7H-purine-2-carboxylic acid] | – | 213 nM | –
C[C@@H](Nc1nc(C(=O)O)nc2nc(-c3ccncc3)n(Cc3ccc(C(F)(F)F)cc3)c12)C1CCC1 [Example 2.77, 6-{[(1R)-1-cyclobutylethyl]amino}-8-pyridin-4-yl-7-[4-(trifluoromethyl)benzyl]-7H-purine-2-carboxylic acid] | – | 72.6 nM | –
C[C@@H](Nc1nc(C(=O)O)nc2nc(-c3cccc(N(C)C)c3)n(Cc3ccc(C(F)(F)F)cc3)c12)C1CC1 [Example 2.29, 6-{[(1R)-1-cyclopropylethyl]amino}-8-[3-(dimethylamino)phenyl]-7-[4-(trifluoromethyl)benzyl]-7H-purine-2-carboxylic acid] | – | 105 nM | –
Cc1cccc(-c2nc3nc(C(=O)O)nc(N[C@H](C)C4CC4)c3n2C(C)c2ccc(Cl)cc2)c1 (stereo partly drawn) [Example 5.1, 7-(1-(4-chlorophenyl)ethyl)-6-(((R)-1-cyclopropylethyl)amino)-8-(3-methylphenyl)-7H-purine-2-carboxylic acid] | – | – | IC50 (Table 5): 855 nM
Cc1cccc(-c2nc3nc(C(=O)O)nc(N[C@H](C)C4CC4)c3n2Cc2ccc(Cl)cc2)c1 [Example 2.6, 7-(4-chlorobenzyl)-6-{[(1R)-1-cyclopropylethyl]amino}-8-(3-methylphenyl)-7H-purine-2-carboxylic acid] | – | 209 nM | –
COc1cc(C)cc(-c2nc3nc(C(=O)O)nc(N[C@H](C)C4CCC4)c3n2Cc2ccc(C(F)(F)F)cc2)c1 [Example 1.123, 6-{[(1R)-1-cyclobutylethyl]amino}-8-(3-methoxy-5-methylphenyl)-7-[4-(trifluoromethyl)benzyl]-7H-purine-2-carboxylic acid] | 53.6 nM | – | –
C[C@@H](Nc1nc(C(=O)O)nc2nc(-c3ccc(Cl)c(Cl)c3)n(Cc3ccc(C(F)(F)F)cc3)c12)C1CC1 [Example 2.31, 6-{[(1R)-1-cyclopropylethyl]amino}-8-(3,4-dichlorophenyl)-7-[4-(trifluoromethyl)benzyl]-7H-purine-2-carboxylic acid] | – | 154 nM | –
C[C@@H](Nc1nc(C(=O)O)nc2nc(-c3nccn3C)n(Cc3ccc(C(F)(F)F)cc3)c12)C1CCC1 [Example 3.1, (R)-6-((1-cyclobutylethyl)amino)-8-(1-methyl-1H-imidazol-2-yl)-7-(4-(trifluoromethyl)benzyl)-7H-purine-2-carboxylic acid] | – | – | IC50 (Table 3): 161 nM
COc1ccc(C(F)(F)F)cc1-c1nc2nc(C(=O)O)nc(N[C@H](C)C3CCC3)c2n1Cc1ccc(C(F)(F)F)cc1 [Example 1.35, 6-{[(1R)-1-cyclobutylethyl]amino}-8-[2-methoxy-5-(trifluoromethyl)phenyl]-7-[4-(trifluoromethyl)benzyl] - 7H-purine-2-carboxylic acid] | 27.8 nM | – | –
C[C@@H](Nc1nc(C(=O)O)nc2nc(-c3cccc(N(C)C)c3)n(Cc3ccc(C(F)(F)F)cc3)c12)C1CCC1 [Example 2.37, 6-{[(1R)-1-cyclobutylethyl]amino}-8-[3-(dimethylamino)phenyl]-7-[4-(trifluoromethyl)benzyl]-7H-purine-2-carboxylic acid] | – | 6.6 nM | –
CC(C)c1cncc(-c2nc3nc(C(=O)O)nc(N[C@H](C)C4CCC4)c3n2Cc2ccc(C(F)(F)F)cc2)c1 [Example 1.81, 6-{[(1R)-1-cyclobutylethyl]amino}-8-[5-(1-methylethyl)pyridin-3-yl]-7-[4-(trifluoromethyl)benzyl]-7H-purine-2-carboxylic acid] | 74.4 nM | – | –
CCc1cccc(-c2nc3nc(C(=O)O)nc(N[C@H](C)C4CCC4)c3n2Cc2ccc(C(F)(F)F)cc2)c1 [Example 2.23, 6-{[(1R)-1-cyclobutylethyl]amino}-8-(3-ethylphenyl)-7-[4-(trifluoromethyl)benzyl]-7H-purine-2-carboxylic acid] | – | 16.7 nM | –
CC(C)c1ccnc(-c2nc3nc(C(=O)O)nc(N[C@H](C)C4CCC4)c3n2Cc2ccc(C(F)(F)F)cc2)c1 [Example 1.22] | 4.22 nM | – | –

Structure (SMILES) | IC50 (Table 1) | IC50 (Table 2) | further results
C[C@@H](Nc1nc(C(=O)O)nc2nc(-c3cc(C(C)(C)C)cc(C(C)(C)C)c3)n(Cc3ccc(C(F)(F)F)cc3)c12)C1CCC1 [Example 1.128, 6-{[(1R)-1-cyclobutylethyl]amino}-8-(3,5-di-tert-butylphenyl)-7-[4-(trifluoromethyl)benzyl]-7H-purine-2-carboxylic acid] | 224 nM | – | –
Cc1ccnc(-c2nc3nc(C(=O)O)nc(N[C@H](C)C4CCC4)c3n2Cc2ccc(C(F)(F)F)cc2)c1 [Example 1.17, 6-{[(1R)-1-cyclobutylethyl]amino}-8-(4-methylpyridin-2-yl)-7-[4-(trifluoromethyl)benzyl]-7H-purine-2-carboxylic acid] | 12.7 nM | – | –
Cc1cccc(-c2nc3nc(C(=O)O)nc(N[C@H](C)C4CC4)c3n2Cc2ccc(C(F)(F)F)cc2)c1C [Example 2.59, 6-{[(1R)-1-cyclopropylethyl]amino}-8-(2,3-dimethylphenyl)-7-[4-(trifluoromethyl)benzyl]-7H-purine-2-carboxylic acid] | – | 147 nM | –
C[C@@H](Nc1nc(C(=O)O)nc2nc(Cc3ccccc3)n(Cc3ccc(Cl)cc3)c12)C1CC1 [Example 2.43, 8-benzyl-7-(4-chlorobenzyl)-6-{ [(1R)-1-cyclopropylethyl]amino}-7H-purine-2-carboxylic acid] | – | 28.1 nM | –
COc1cc(OC)cc(-c2nc3nc(C(=O)O)nc(N[C@H](C)C4CC4)c3n2Cc2ccc(C(F)(F)F)cc2)c1 [Example 2.28, 6-{[(1R)-1-cyclopropylethyl]amino}-8-(3,5-dimethoxyphenyl)-7-[4-(trifluoromethyl)benzyl]-7H-purine-2-carboxylic acid] | – | 455 nM | –
CC(C)c1ccnc(-c2nc3nc(C(=O)O)nc(N[C@H](C)C4CCC4)c3n2Cc2ccc(C(F)(F)F)cc2)n1 [Example 3.2, (R)-6-((1-cyclobutylethyl)amino)-8-(4-isopropylpyrimidin-2-yl)-7-(4-(trifluoromethyl)benzyl)-7H-purine-2-carboxylic acid] | – | – | IC50 (Table 3): 22 nM
CC(C)c1ccc(OC(F)(F)F)c(-c2nc3nc(C(=O)O)nc(N[C@H](C)C4CCC4)c3n2Cc2ccc(OC(F)(F)F)c(F)c2)c1 [Example 1.83, 6-{[(1R)-1-cyclobutylethyl]amino}-7-[3-fluoro-4-(trifluoromethoxy)benzyl]-8-[5-(1-methylethyl)-2-(trifluoromethoxy)phenyl]-7H-purine-2-carboxylic acid] | 23.2 nM | – | –
COc1ccc(C(C)C)cc1-c1nc2nc(C(=O)O)nc(N[C@H](C)C3CCC3)c2n1Cc1ccc(C(F)(F)F)cc1 [Example 1.41, 6-{[(1R)-1-cyclobutylethyl]amino}-8-[2-methoxy-5-(1-methylethyl)phenyl]-7-[4-(trifluoromethyl)benzyl]-7H-purine-2-carboxylic acid] | 27.5 nM | – | –
C[C@@H](Nc1nc(C(=O)O)nc2nc(-c3ccc(Cl)c(Cl)c3)n(Cc3ccc(C(F)(F)F)cc3)c12)C1CCC1 [Example 2.76, 6-{[(1R)-1-cyclobutylethyl]amino}-8-(3,4-dichlorophenyl)-7-[4-(trifluoromethyl)benzyl]-7H-purine-2-carboxylic acid] | – | 20.4 nM | –
C[C@@H](Nc1nc(C(=O)O)nc2nc(-c3ccc(F)cc3F)n(Cc3ccc(C(F)(F)F)cc3)c12)C1CCC1 [Example 2.68, 6-{[(1R)-1-cyclobutylethyl]amino}-8-(2,4-difluorophenyl)-7-[4-(trifluoromethyl)benzyl]-7H-purine-2-carboxylic acid] | – | 22.4 nM | –
CCOc1ccc(C)cc1-c1nc2nc(C(=O)O)nc(N[C@H](C)C3CCC3)c2n1Cc1ccc(C(F)(F)F)cc1 [Example 1.138, 6-{[(1R)-1-cyclobutylethyl]amino}-8-(2-ethoxy-5-methylphenyl)-7-[4-(trifluoromethyl)benzyl]-7H-purine-2-carboxylic acid] | 15.8 nM | – | –
Cc1cc(-c2nc3nc(C(=O)O)nc(N[C@H](C)C4CC4)c3n2Cc2ccc(Cl)cc2)ccc1F [Example 2.13, 7-(4-chlorobenzyl)-6-{[(1R)-1-cyclopropylethyl]amino}-8-(4-fluoro-3-methylphenyl)-7H-purine-2-carboxylic acid] | – | 40.4 nM | –
C[C@@H](Nc1nc(C(=O)O)nc2nc(-c3cc(Cl)ccn3)n(Cc3ccc(C(F)(F)F)cc3)c12)C1CCC1 [Example 1.44, 8-(4-chloropyridin-2-yl)-6-{[(1R)-1-cyclobutylethyl]amino}-7-[4-(trifluoromethyl)benzyl] - 7H-purine-2-carboxylic acid] | 16.5 nM | – | –
Cc1ccc(C)c(-c2nc3nc(C(=O)O)nc(N[C@H](C)C4CCC4)c3n2Cc2ccc(C(F)(F)F)cc2)c1 [Example 1.99, 6-{[(1R)-1-cyclobutylethyl]amino}-8-(2,5-dimethylphenyl)-7-[4-(trifluoromethyl)benzyl]-7H-purine-2-carboxylic acid] | 14.9 nM | – | –
CCOc1ccc(C(F)(F)F)cc1Cn1c(-c2cccc(C)c2)nc2nc(C(=O)O)nc(N[C@H](C)C3CC3)c21 [Example 5.5, 6-{[(1R)-1-cyclopropylethyl]amino}-7-(2-ethoxy-5-(trifluoromethyl)benzyl)-8-(3-methylphenyl)-7H-purine-2-carboxylic acid] | – | – | IC50 (Table 5): 2740 nM

— patent publication EP2951180B1, “2,6,7,8 SUBSTITUTED PURINES AS HDM2 INHIBITORS” (Merck Sharp & Dohme Corp., priority 2013, dated 2014)
